Assay results published in PubChem BioAssay (NCI).
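Method: 48-hour compound exposure of cells in 96-well plates, five concentrations, linear interpolation of endpoints. TGI denotes the concentration required for complete inhibition of growth.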

What was measured:
Assay in all cases: DTP human tumour cell line panel, 48 h
[1] = system: KM12 colon
[2] = system: NCI-H23 lung
[3] = system: NCI-H522 lung
[4] = system: OVCAR-8 ovarian
[5] = system: SF-268 CNS
[6] = system: SK-MEL-5 melanoma
[7] = system: UACC-257 melanoma
[8] = system: DU-145 prostate
[9] = system: IGROV1 ovarian
[10] = system: MDA-N
[11] = system: OVCAR-5 ovarian
[12] = system: T-47D breast
[13] = system: BT-549 breast

Row | SMILES | TGI [1] | TGI [2] | TGI [3] | TGI [4] | TGI [5] | TGI [6] | TGI [7] | TGI [8] | TGI [9] | TGI [10] | TGI [11] | TGI [12] | TGI [13]
1 | OC12c3ccccc3C1CCCCC2N1CCCC1 (centres undefined) | > 100 µM | > 100 µM | > 100 µM | > 100 µM | > 100 µM | > 100 µM | > 100 µM | – | – | – | – | – | –
2 | CC(C)CC(NC(=O)C(C)(CI)Cc1ccccc1)C(=O)Nc1ccccc1 (centres undefined) | > 100 µM | > 100 µM | > 100 µM | > 100 µM | – | > 100 µM | > 100 µM | > 100 µM | > 100 µM | > 100 µM | > 100 µM | – | –
3 | Cc1c(C)c2ccc(OCC(O)COC(C)C)c(C)c2oc1=O (centres undefined) | > 100 µM | > 100 µM | 45.8 µM | > 100 µM | > 100 µM | 30.2 µM | 43.4 µM | > 100 µM | > 100 µM | 33 µM | > 100 µM | > 100 µM | –
4 | CSc1ncnc2c1ncn2CCC(=O)O | > 100 µM | > 100 µM | > 100 µM | > 100 µM | > 100 µM | > 100 µM | > 100 µM | > 100 µM | > 100 µM | > 100 µM | > 100 µM | – | –
5 | COc1ccc2c3c1OC1C(F)C=CC4(O)C(C2)NCCC314 (centres undefined) | 13 µM | 6.64 µM | 2.02 µM | 14.7 µM | 6.93 µM | 16.1 µM | 24.1 µM | 9.71 µM | 20.3 µM | 11 µM | 12.8 µM | – | 6.66 µM
6 | O=C(O)c1ccccc1C(=O)NCC1S(=O)(=O)OCCOS1(=O)=O | – | > 100 µM | > 100 µM | > 100 µM | > 100 µM | > 100 µM | > 100 µM | > 100 µM | > 100 µM | > 100 µM | > 100 µM | > 100 µM | –
7 | Cc1ccc(C)n1-c1ccccc1C1C=Cn2c(=O)nnc3c(OC(C)C)c(OC(C)C)c(O)c1c32 (centres undefined) | > 100 µM | > 100 µM | 49.6 µM | > 100 µM | > 100 µM | > 100 µM | > 100 µM | > 100 µM | > 100 µM | > 100 µM | > 100 µM | – | > 100 µM
8 | CC(=O)OC[C@H]1CN(OC(C)=O)C[C@@H](n2cc(C)c(=O)[nH]c2=O)O1 | > 100 µM | – | – | > 100 µM | > 100 µM | > 100 µM | > 100 µM | > 100 µM | > 100 µM | > 100 µM | > 100 µM | > 100 µM | > 100 µM
9 | CCOC(=O)C1(C#N)OC(=O)c2cnccc21 (centres undefined) | > 100 µM | > 100 µM | > 100 µM | > 100 µM | > 100 µM | – | > 100 µM | > 100 µM | > 100 µM | > 100 µM | > 100 µM | > 100 µM | > 100 µM
10 | CCOC(=O)C(C(=O)OCC)=C1SC(=Nc2ccccc2)C(=Nc2ccccc2)N1c1ccccc1 | > 100 µM | > 100 µM | > 100 µM | > 100 µM | > 100 µM | > 100 µM | – | > 100 µM | > 100 µM | > 100 µM | > 100 µM | > 100 µM | > 100 µM
11 | CC1CC(N)=C(C#N)C1(C#N)C#N (centres undefined) | > 100 µM | > 100 µM | > 100 µM | > 100 µM | > 100 µM | – | > 100 µM | > 100 µM | > 100 µM | > 100 µM | > 100 µM | > 100 µM | –
12 | COC(=O)c1c([N+](=O)[O-])ncn1[C@H]1OC[C@@H](OC(C)=O)[C@@H](OC(C)=O)[C@@H]1OC(C)=O | > 100 µM | > 100 µM | > 100 µM | > 100 µM | > 100 µM | – | > 100 µM | > 100 µM | > 100 µM | > 100 µM | > 100 µM | > 100 µM | > 100 µM
13 | COc1cc2c(cc1OC)OC(c1c(OC)ccc(OC)c1O)CC2 (centres undefined) | > 100 µM | > 100 µM | – | > 100 µM | > 100 µM | > 100 µM | > 100 µM | > 100 µM | > 100 µM | – | > 100 µM | > 100 µM | > 100 µM
14 | COc1ccccc1Nc1nc2c([nH]1)c(=O)n(C)c(=O)n2C | > 10 µM | > 10 µM | – | > 10 µM | > 10 µM | > 10 µM | > 10 µM | > 10 µM | > 10 µM | > 10 µM | – | > 10 µM | –
15 | Cc1ccc(CC(Cc2ccccc2C)C(=O)O)c(C(=O)O)c1 (centres undefined) | > 100 µM | > 100 µM | > 100 µM | > 100 µM | > 100 µM | > 100 µM | > 100 µM | > 100 µM | > 100 µM | > 100 µM | > 100 µM | – | > 100 µM
16 | N#Cc1ccc(C(O)C(F)(F)c2nc3ccccc3o2)cc1 (centres undefined) | > 100 µM | > 100 µM | – | > 100 µM | > 100 µM | > 100 µM | > 100 µM | > 100 µM | > 100 µM | – | – | > 100 µM | > 100 µM
17 | CC1=NN(c2cccc(Cl)c2)C2(SCC(=O)N2c2nc3ccccc3s2)C1=CC=Cc1ccccc1 (centres undefined) | > 100 µM | 91.1 µM | 62.3 µM | > 100 µM | 93.5 µM | 47 µM | > 100 µM | 68.6 µM | > 100 µM | > 100 µM | > 100 µM | > 100 µM | –
18 | O=C(Nc1ccc(C(F)(F)F)cc1)NC(F)(F)F | – | > 100 µM | – | > 100 µM | > 100 µM | > 100 µM | > 100 µM | – | > 100 µM | > 100 µM | > 100 µM | > 100 µM | > 100 µM
19 | CC(=O)OCCn1cnc2c(NCC=C(C)C)ncnc21 | > 100 µM | > 100 µM | > 100 µM | > 100 µM | > 100 µM | > 100 µM | > 100 µM | > 100 µM | > 100 µM | > 100 µM | > 100 µM | > 100 µM | –
20 | O=c1oc2ccc3ccccc3c2cc1-c1nnc(Nc2ccccc2)s1 | > 100 µM | 98.3 µM | 69.3 µM | – | > 100 µM | – | > 100 µM | 55.5 µM | – | – | > 100 µM | > 100 µM | > 100 µM
